# In patent US20260034135A1, “USE OF N6-BENZYLAMINOPURINE AS AN APPETITE SUPPRESSANT” (THE GOVERNING COUNCIL OF THE UNIVERSITY OF TORONTO, priority 2022, published 2026):
# Experiments:
# [1] = Intraperitoneal insulin tolerance test (ITT); format: in vivo, CD-1 mice
# Experimental: All protocols using mice were approved by the University Animal Care Committee of the University of Toronto and were performed in accordance with the Canadian Council on Animal Care. Animal experiments were performed in three separate animal facilities: Medical Sciences Building (MSB), Centre for Cellular and Biomolecular Research (CCBR) and the Biological Sciences Facility (BSF) due to ongoing construction and housing changes. Facilities and dates are indicated in each experimental cohort. N6-benzylaminopurine (BAP; also called N6-benzyladenine) was obtained from Sigma (B3408, cell culture grade in powder form; CAS number 1214-39-7). Male and female CD-1 mice aged 6-7 weeks were acquired from Charles Rivers and acclimated on a chow diet for one week prior to experimentation. Mice were then weight-matched and placed on either a 60% high fat diet (HFD) or sucrose-matched control diet for 4 weeks (from Research Diets: 60% HFD D12492 and the sucrose-matched control diet […]). After 3 weeks on the diet, mice were acclimated for one week to the drinking apparatus, a 50 mL canonical tube with a drinking tube. After 4 weeks on the diet, the mice were again weight-matched and randomly assigned to either the control or BAP group. […] The average dosages achieved using this method are as follows: male HFD (200 mg/kg/day), male control (157 mg/kg/day), female HFD (189 mg/kg/day), and female control (129.9 mg/kg/day). The mice were exposed continuously to the solutions for a total of 33 days. One week prior to the end of the experiment (day 28), the mice were fasted for 4 hr and underwent intraperitoneal insulin tolerance testing (ITT). After 33 days, the mice were sacrificed, and their tissues were collected. RNA was isolated from the collected hypothalamic and used to quantify gene expression via qRT-PCR. Male mice were placed on a 60% HFD for 8 weeks prior to the ITT and GTT analyses. At 4 weeks, treatment with BAP or vehicle was introduced on a daily basis in the honey emulsion as described above. The mice were then briefly fasted to determine the response to insulin or glucose. For the intraperitoneal insulin tolerance test (ITT), mice were transferred to clean cages without food and fasted for 4 hours. The mice were weighed after 3 hours of fasting and these weights were used to determine optimal insulin dosage (1 IU/kg). The appropriate amount of insulin was aliquoted. After 4 hours of fasting, blood glucose was measured via tail vein using a standard glucometer. This value was recorded as the 0-minute timepoint. The mice were intraperitoneal injected with their aliquoted amount of insulin and returned to their cage. Blood glucose was measured via tail vein 15, 30, and 60 minutes after insulin injection. Mice were provided with 20% glucose solution and removed from ITT if hypoglycemia was observed. Upon completion of ITT, mice were returned to cages with food and water and monitored for adverse effects.
# [2] = BAP in a honey emulsion fed to CD-1 mice: body weight, food and water intake; format: in vivo
# Source text: Male and female CD-1 mice were received at age 6-7 weeks and were acclimated on a chow diet for one week prior to experimentation. After acclimation to the facility, mice were switched to a 60% HFD. The male and female mice received HFD for 4 (male) and 5 or 16 (female) weeks prior to BAP exposure. The mice were then acclimated to the emulsion feeding protocol for 4 days prior to the start of BAP exposure using the method described in Kuster et al. (12). Two days prior to the start of the exposure period, a cohort of male mice underwent acute general anesthetic with isoflurane for baseline Bruker scanning to quantify peripheral fat mass. The mice were then weight-matched and randomly assigned to either the control or BAP group. During the exposure period, mice were restrained via scruffing (held at back of neck) and fed 200 μL of an emulsion containing 0.5% carboxymethyl cellulose and 50% honey with or without BAP at 2 hr prior to lights off at the facility daily.
# […] All mice were kept on the 60% HFD throughout the exposure period. […] On day 12, the one cohort of male mice underwent general anesthetic for the purpose of post-experiment Bruker scanning. The male mice were then fed their assigned emulsion 2 hr prior to sacrificing and tissue collection. […] Hypothalamic collected from the mice were then used to isolate RNA and quantify gene expression using quantitative reverse transcription polymerase chain reaction (qRT-PCR).
# [3] = male CD-1, 60% HFD, 300 mg/kg/day BAP emulsion, 11 days, cohort CCBR
# [4] = male CD-1, 60% HFD, 300 mg/kg/day BAP emulsion, 14 days, cohort BSF
# [5] = male CD-1, 60% HFD, 300 mg/kg/day BAP emulsion, 28 days, cohort BSF
smiles,measurement,setting,value
"c1ccc(CNc2ncnc3nc[nH]c23)cc1 [BAP, N6-benzylaminopurine]",fasting blood glucose with BAP (ITT),"[1]; female CD-1, 60% HFD, BAP emulsion, one week prior to sacrifice, 4 hr fast (data not shown)",no significant differences
same,fasting blood glucose with BAP,"[1]; female CD-1, BAP in drinking water, ITT one week prior to sacrifice, 4 hr fast",no significant differences
same,insulin sensitivity (ip insulin tolerance test),"[1]; female CD-1, HFD, BAP in drinking water, after 28 days of exposure",do not exhibit enhanced insulin sensitivity
same,fasting blood glucose vs HFD without BAP,"[1]; male CD-1, 60% HFD, BAP in drinking water, ITT at day 28, 4 hr fast",significantly lower fasting blood glucose levels
same,insulin sensitivity (blood glucose after ip insulin tolerance test),"[1]; male CD-1, 60% HFD, after 28 days of daily oral BAP exposure",improved glucose tolerance
same,body weight gain on HFD,"[2]; female CD-1, 16 weeks 60% HFD then 300 mg/kg/day BAP emulsion 36 days, cohort BSF",did not gain weight
same,food intake vs control,"[2]; female CD-1, 60% HFD, 300 mg/kg/day BAP emulsion 36 days, cohort BSF",did not eat significantly less HFD
same,body weight change vs control,"[2]; male CD-1, 60% HFD, 75 mg/kg/day BAP emulsion, 14 days",no change
same,body weight gain on HFD,"[2]; male CD-1, 60% HFD, 150 mg/kg/day BAP emulsion, 14 days, cohort BSF",did not gain weight
same,body weight loss,[2]; [3],5%
same,reduction in HFD food intake vs control group over the exposure period,[2]; [3],22%
same,body weight loss,[2]; [4],1.3%
same,daily average food intake vs control,[2]; [4],did not eat significantly less HFD
same,body weight loss,"[2]; male CD-1, 60% HFD, 300 mg/kg/day BAP emulsion, 14 days, dose study, cohort BSF",1.1%
same,food intake,"[2]; male CD-1, 60% HFD, 300 mg/kg/day BAP emulsion, 14 days, dose study, significant by unpaired t-test at 8 days onward",trend towards a decrease in food intake that did not reach significance
same,body weight loss,[2]; [5],5%
same,reduction in daily average food intake vs control,[2]; [5],13%
same,cumulative daily food intake,"[2]; male CD-1, 60% HFD, 75, 150, 300 mg/kg BAP emulsion, 14 days",do not have significant changes in food intake
